Experimental data from patent publication US11802111B2, “Cyclobutyl amide monoacylglycerol lipase modulators” (Janssen Pharmaceutica NV, priority 2020, dated 2023).

Target: human MGL from HeLa cells (Homo sapiens (Human), UniProt Q99685)
Test: MGL in vitro activity assay ([glycerol-1,3-3H]-oleoyl glycerol hydrolysis, activated carbon filtration)
Type: biochemical
Conditions: 300 nM [Glycerol-1,3-3H]-oleoyl glycerol, one hour
Protocol: The assay used to measure the in vitro activity of MGL is adapted from the assay used for another serine hydrolase (FAAH) described in Wilson et al., 2003 (A high-throughput-compatible assay for determining the activity of fatty acid amide hydrolase. Wilson S J, Lovenberg T W, Barbier A J. Anal Biochem. 2003 Jul. 15; 318(2):270-5). The assay consists of combining endogenously expressed MGL from HeLa cells with test compounds, adding [glycerol-1,3-^3H]-oleyl glycerol, incubating for one hour, and then measuring the amount of cleaved [1,3-^3H]-glycerol that passes through an activated carbon filter. The amount of cleaved, tritiated glycerol passing through the carbon filter is proportional to the activity of the MGL enzyme in a particular well/test condition.
Standard conditions for this assay combine 300 nM [Glycerol-1,3-^3H]-oleoyl glycerol with human MGL from HeLa cells and test compounds for one hour, after which the reaction is filtered through activated carbon and tritium is measured in the flow through. The test compound concentration in screening mode is 10 μM, while the highest compound concentration in IC50 assays is determined empirically. MGL is the predominant hydrolase in HeLa cells/cell homogenates.

human MGL from HeLa cells, sequence (Q99685 whole entry): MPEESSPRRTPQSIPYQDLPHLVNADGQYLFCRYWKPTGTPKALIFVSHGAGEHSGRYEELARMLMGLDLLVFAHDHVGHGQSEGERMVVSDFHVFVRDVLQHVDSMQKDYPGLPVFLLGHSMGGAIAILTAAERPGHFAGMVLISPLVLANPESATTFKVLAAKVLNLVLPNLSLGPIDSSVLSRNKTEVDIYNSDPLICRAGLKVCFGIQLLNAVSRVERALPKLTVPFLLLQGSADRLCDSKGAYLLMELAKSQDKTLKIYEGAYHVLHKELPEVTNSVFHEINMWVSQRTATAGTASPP

IC50 | Compound
0.203 µM | COc1cc(C)cc(C2CC3(CCN(C(=O)[C@H]4C[C@@](C)(O)C4)CC3)C2)c1 [Example 478, ((1s,3s)-3-Hydroxy-3-methylcyclobutyl)(2-(3-methoxy-5-methylphenyl)-7-azaspiro[3.5]nonan-7-yl)methanone]
0.0029 µM | Cc1c(OC2CC2)cccc1C1CCC2(CC1)CN(C(=O)[C@H]1C[C@@](C)(O)C1)C2 [Example 364, (7-(3-Cyclopropoxy-2-methylphenyl)-2-azaspiro[3.5]nonan-2-yl)((1s,3s)-3-hydroxy-3-methylcyclobutyl)methanone]
0.074 µM | C[C@]1(O)C[C@@H](C(=O)N2CCC3(CC2)CC(Cc2ccccc2)C3)C1 [Example 172, (2-Benzyl-7-azaspiro[3.5]nonan-7-yl)((1s,3s)-3-hydroxy-3-methylcyclobutyl)methanone]
0.032 µM | C[C@]1(O)C[C@@H](C(=O)N2CC3(CCC(Oc4cccc(C5CC5)c4)CC3)C2)C1 [Example 264, (7-(3-Cyclopropylphenoxy)-2-azaspiro[3.5]nonan-2-yl)((1s,3s)-3-hydroxy-3-methylcyclobutyl)methanone]
0.125 µM | C[C@]1(O)C[C@@H](C(=O)N2CC3(CCC(Oc4cccc(C5CC5)c4F)C3)C2)C1 (mixture of isomers) [Example 334, (rac)-(6-(3-Cyclopropyl-2-fluorophenoxy)-2-azaspiro[3.4]octan-2-yl)((1s,3s)-3-hydroxy-3-methylcyclobutyl)methanone]
0.084 µM | CC(C)(C)c1ccc(OC2CC3(C2)CN(C(=O)[C@H]2C[C@@](C)(O)C2)C3)cc1 [Example 246, (6-(4-(tert-Butyl)phenoxy)-2-azaspiro[3.3]heptan-2-yl)((1s,3s)-3-hydroxy-3-methylcyclobutyl)methanone]
0.0023 µM | CC(C)c1ccc(CC2CC3(C2)CN(C(=O)[C@H]2C[C@@](C)(O)C2)C3)cc1 [Example 185, ((1s,3s)-3-Hydroxy-3-methylcyclobutyl)(6-(4-isopropylbenzyl)-2-azaspiro[3.3]heptan-2-yl)methanone]
0.037 µM | Cc1c(OC2CCC3(C2)CN(C(=O)[C@H]2C[C@@](C)(O)C2)C3)cccc1C1CC1 (mixture of isomers) [Example 333, (rac)-(6-(3-Cyclopropyl-2-methylphenoxy)-2-azaspiro[3.4]octan-2-yl)((1s,3s)-3-hydroxy-3-methylcyclobutyl)methanone]
0.015 µM | CCc1nc(OC2CCC3(CC2)CN(C(=O)[C@H]2C[C@@](C)(O)C2)C3)ccc1C(F)F [Example 440, (7-((5-(Difluoromethyl)-6-ethylpyridin-2-yl)oxy)-2-azaspiro[3.5]nonan-2-yl)((1s,3s)-3-hydroxy-3-methylcyclobutyl)methanone]
0.026 µM | CC(C)(C)c1cccc(OC2CCC3(C2)CN(C(=O)[C@H]2C[C@@](C)(O)C2)C3)c1 (mixture of isomers) [Example 243, (rac)-(6-(3-(tert-Butyl)phenoxy)-2-azaspiro[3.4]octan-2-yl)((1s,3s)-3-hydroxy-3-methylcyclobutyl)methanone]
0.116 µM | C[C@]1(O)C[C@@H](C(=O)N2CC3(CCC(Oc4ccc(F)c(C5CC5)c4)C3)C2)C1 (mixture of isomers) [Example 335, (rac)-(6-(3-Cyclopropyl-4-fluorophenoxy)-2-azaspiro[3.4]octan-2-yl)((1s,3s)-3-hydroxy-3-methylcyclobutyl)methanone]
0.019 µM | Cc1cc(CC2CCC3(CC2)CN(C(=O)[C@H]2C[C@@](C)(O)C2)C3)ccc1F [Example 399, (7-(4-Fluoro-3-methylbenzyl)-2-azaspiro[3.5]nonan-2-yl)((1s,3s)-3-hydroxy-3-methylcyclobutyl)methanone]
0.011 µM | Cc1ccc(C2CCC3(C2)CN(C(=O)[C@H]2C[C@@](C)(O)C2)C3)cc1C(F)(F)F (mixture of isomers) [Example 65, (rac)-((1s,3s)-3-Hydroxy-3-methylcyclobutyl)(6-(4-methyl-3-(trifluoromethyl)phenyl)-2-azaspiro[3.4]octan-2-yl)methanone]
0.02 µM | Cc1cc(C(F)(F)F)ccc1OC1CC2(C1)CN(C(=O)[C@H]1C[C@@](C)(O)C1)C2 [Example 249, ((1s,3s)-3-Hydroxy-3-methylcyclobutyl)(6-(2-methyl-4-(trifluoromethyl)phenoxy)-2-azaspiro[3.3]heptan-2-yl)methanone]
0.0017 µM | Cc1cccc(CC2CC3(C2)CN(C(=O)[C@H]2C[C@@](C)(O)C2)C3)c1C1CC1 [Example 207, (6-(2-Cyclopropyl-3-methylbenzyl)-2-azaspiro[3.3]heptan-2-yl)((1s,3s)-3-hydroxy-3-methylcyclobutyl)methanone]
0.0012 µM | COc1nc(CC2CC3(C2)CN(C(=O)[C@H]2C[C@@](C)(O)C2)C3)ccc1C(F)(F)F [Example 281, ((1s,3s)-3-Hydroxy-3-methylcyclobutyl)(6-((6-methoxy-5-(trifluoromethyl)pyridin-2-yl)methyl)-2-azaspiro[3.3]heptan-2-yl)methanone]

IC50 | Compound
0.011 µM | C[C@]1(O)C[C@@H](C(=O)N2CC3(CCC(Cc4cccc(C(F)(F)F)c4)C3)C2)C1 (mixture of isomers) [Example 176, (rac)-((1s,3s)-3-Hydroxy-3-methylcyclobutyl)(6-(3-(trifluoromethyl)benzyl)-2-azaspiro[3.4]octan-2-yl)methanone]
0.125 µM | Cc1cc(C2CC2)ccc1C1CC2(C1)CN(C(=O)[C@H]1C[C@@](C)(O)C1)C2 [Example 28, (6-(4-Cyclopropyl-2-methylphenyl)-2-azaspiro[3.3]heptan-2-yl)((1s,3s)-3-hydroxy-3-methylcyclobutyl)methanone]
0.128 µM | CC(C)c1ccc(C2CC3(C2)CN(C(=O)[C@H]2C[C@@](C)(O)C2)C3)cc1 [Example 4, ((1s,3s)-3-Hydroxy-3-methylcyclobutyl)(6-(4-isopropylphenyl)-2-azaspiro[3.3]heptan-2-yl)methanone]
0.025 µM | Cc1cc(C2CCC3(C2)CN(C(=O)[C@H]2C[C@@](C)(O)C2)C3)ccc1C(F)F (mixture of isomers) [Example 12, (rac)-(6-(4-(Difluoromethyl)-3-methylphenyl)-2-azaspiro[3.4]octan-2-yl)((1s,3s)-3-hydroxy-3-methylcyclobutyl)methanone]
0.03 µM | COc1cc(C)cc(C2CCC3(CC2)CN(C(=O)[C@H]2C[C@@](C)(O)C2)C3)c1 [Example 128, ((1s,3s)-3-Hydroxy-3-methylcyclobutyl)(7-(3-methoxy-5-methylphenyl)-2-azaspiro[3.5]nonan-2-yl)methanone]
0.0057 µM | C[C@]1(O)C[C@@H](C(=O)N2CC3(CC[C@@H](Cc4ccc(OC(F)(F)F)cc4)C3)C2)C1 (racemic) [Example 179, (rac)-((1s,3s)-3-Hydroxy-3-methylcyclobutyl)(6-(4-(trifluoromethoxy)benzyl)-2-azaspiro[3.4]octan-2-yl)methanone]
0.025 µM | Cc1cc(OC(F)F)ccc1C1CCC2(C1)CN(C(=O)[C@H]1C[C@@](C)(O)C1)C2 (mixture of isomers) [Example 83, (rac)-(6-(4-(Difluoromethoxy)-2-methylphenyl)-2-azaspiro[3.4]octan-2-yl)((1s,3s)-3-hydroxy-3-methylcyclobutyl)methanone]
0.0062 µM | COc1ccc(CC2CC3(C2)CN(C(=O)[C@H]2C[C@@](C)(O)C2)C3)c(C(F)F)c1 [Example 274, (6-(2-(Difluoromethyl)-4-methoxybenzyl)-2-azaspiro[3.3]heptan-2-yl)((1s,3s)-3-hydroxy-3-methylcyclobutyl)methanone]
0.348 µM | C[C@]1(O)C[C@@H](C(=O)N2CC3(CCC(c4cc5ccccn5n4)C3)C2)C1 (mixture of isomers) [Example 325, (rac)-((1s,3s)-3-Hydroxy-3-methylcyclobutyl)(6-(pyrazolo[1,5-c]pyridin-2-yl)-2-azaspiro[3.4]octan-2-yl)methanone]
0.017 µM | CC(C)c1ccc(C2CCC3(CC2)CN(C(=O)[C@H]2C[C@@](C)(O)C2)C3)cc1 [Example 130, ((1s,3s)-3-Hydroxy-3-methylcyclobutyl)(7-(4-isopropylphenyl)-2-azaspiro[3.5]nonan-2-yl)methanone]
0.012 µM | Cc1cc(C2CCC3(C2)CN(C(=O)[C@H]2C[C@@](C)(O)C2)C3)ccc1Cl (mixture of isomers) [Example 68, (rac)-(6-(4-Chloro-3-methylphenyl)-2-azaspiro[3.4]octan-2-yl)((1s,3s)-3-hydroxy-3-methylcyclobutyl)methanone]
0.0012 µM | COC1(c2cccc(C(C)C)c2)CCC2(CC1)CN(C(=O)[C@H]1C[C@@](C)(O)C1)C2 [Example 266, ((1s,3s)-3-Hydroxy-3-methylcyclobutyl)(7-(3-isopropylphenyl)-7-methoxy-2-azaspiro[3.5]nonan-2-yl)methanone]
3.09 µM | C[C@]1(O)C[C@@H](C(=O)N2CC3(CCC(c4cccn5ccnc45)C3)C2)C1 (mixture of isomers) [Example 327, (rac)-((1s,3s)-3-Hydroxy-3-methylcyclobutyl)(6-(imidazo[1,2-c]pyridin-8-yl)-2-azaspiro[3.4]octan-2-yl)methanone]
0.012 µM | CC(C)c1ccccc1CC1CC2(C1)CN(C(=O)[C@H]1C[C@@](C)(O)C1)C2 [Example 187, ((1s,3s)-3-Hydroxy-3-methylcyclobutyl)(6-(2-isopropylbenzyl)-2-azaspiro[3.3]heptan-2-yl)methanone]
0.022 µM | CC(C)(C)c1cccc(C2CC3(CCN(C(=O)[C@H]4C[C@@](C)(O)C4)CC3)C2)c1 [Example 153, (2-(3-(tert-Butyl)phenyl)-7-azaspiro[3.5]nonan-7-yl)((1s,3s)-3-hydroxy-3-methylcyclobutyl)methanone]
